From patent US8859543B2, “Imidazo[1,2-a]pyrazine derivatives and their use for the prevention or treatment of neurological, psychiatric and metabolic disorders and diseases” (Janssen Pharmaceutica NV, priority 2010, dated 2014)
Like-named read-outs stand apart in the source and are kept apart here.

How the values were obtained:
[1] = target: T1, Rat recombinant PDE10A (rPDE10A2) (Rattus norvegicus, UniProt Q9QYJ6); assay: In vitro assay PDE10A (SPA, 3H-cAMP); type: biochemical; conditions: pIC50 corresponds to the -log IC50 expressed in mol/L; for IC50: read-out: PDE10A2 pIC50 (converted)
T1 construct: made in house; host or cells: Sf9 insect cells, baculovirus
T1 sequence (Q9QYJ6 1-794): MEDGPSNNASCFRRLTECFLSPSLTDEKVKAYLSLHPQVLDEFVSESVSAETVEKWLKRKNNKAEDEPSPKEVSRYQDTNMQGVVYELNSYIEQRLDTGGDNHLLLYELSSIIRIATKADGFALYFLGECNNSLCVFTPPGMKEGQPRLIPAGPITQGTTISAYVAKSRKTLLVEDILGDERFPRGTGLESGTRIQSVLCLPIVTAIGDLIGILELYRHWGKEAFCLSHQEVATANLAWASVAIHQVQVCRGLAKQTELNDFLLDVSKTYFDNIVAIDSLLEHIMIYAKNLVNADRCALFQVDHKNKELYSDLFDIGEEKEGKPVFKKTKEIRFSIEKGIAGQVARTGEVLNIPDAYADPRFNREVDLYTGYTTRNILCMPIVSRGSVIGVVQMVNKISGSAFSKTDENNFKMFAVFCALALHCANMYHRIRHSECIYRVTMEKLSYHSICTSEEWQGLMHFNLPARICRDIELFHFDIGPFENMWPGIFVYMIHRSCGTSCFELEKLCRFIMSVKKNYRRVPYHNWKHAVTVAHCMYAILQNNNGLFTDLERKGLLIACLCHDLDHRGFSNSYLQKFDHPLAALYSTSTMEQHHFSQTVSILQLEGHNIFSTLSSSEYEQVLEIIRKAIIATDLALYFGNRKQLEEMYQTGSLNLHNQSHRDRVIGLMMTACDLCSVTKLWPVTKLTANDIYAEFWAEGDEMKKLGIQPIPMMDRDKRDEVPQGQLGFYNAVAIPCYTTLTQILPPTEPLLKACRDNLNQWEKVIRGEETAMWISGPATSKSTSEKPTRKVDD
Description: Rat recombinant PDE10A (rPDE10A2) was expressed in Sf9 cells using a recombinant rPDE10A baculovirus construct. Cells were harvested after 48 h of infection and the rPDE10A protein was purified by metal chelate chromatography on Ni-sepharose 6FF. Tested compounds were dissolved and diluted in 100% DMSO to a concentration 100 fold of the final concentration in the assay. Compound dilutions (0.4 μl) were added in 384 well plates to 20 μl of incubation buffer (50 mM Tris pH 7.8, 8.3 mM MgCl2, 1.7 mM EGTA). 10 μl of rPDE10A enzyme in incubation buffer was added and the reaction was started by addition of 10 μl substrate to a final concentration of 60 nM cAMP and 0.008 μCi ^3H-cAMP. The reaction was incubated for 60 min. at RT. […] After sedimentation of the beads during 30 min. the radioactivity was measured in a Perkin Elmer Topcount scintillation counter and results were expressed as cpm. For blank values the enzyme was omitted from the reaction and replaced by incubation buffer. Control values were obtained by addition of a final concentration of 1% DMSO instead of compound. The same assay principle is applied for the measurement of the affinity of the compound for other members of the PDE family with appropriate modifications in incubation buffer, substrate concentration, incubation time and stop solution.

PDE10 = target: T2, PDE10 (Rattus norvegicus, UniProt Q9QYJ6); assay: PDE10 occupancy ([3H]-MP-10, striatum); type: in vivo; conditions: for receptor occupancy at 10 mg/kg / ED50: rat; for receptor occupancy at 10 mg/kg: 1 h, read-out: % occ. printed under Occ. ED50 >10; for ED50: occupancy, read-out: Occ. ED50
T2 construct: from tissue; host or cells: rat brain sections, striatum (ex vivo autoradiography after in vivo dosing)
T2 sequence (Q9QYJ6 1-794): T1 sequence (Q9QYJ6 1-794)
Description: Dose-response or single dose experiments were performed to measure PDE10 occupancy 1 hour after subcutaneous (s.c.) or oral (p.o.) administration. Male Wistar rats (200 g) were treated by s.c. or p.o. administration of various PDE10 inhibitors. The PDE10 radioligand [^3H]-MP-10 (10 μCi/animal) was injected intravenously (i.v.) 30 minutes before sacrifice. Brains were immediately removed from the skull and rapidly frozen. Twenty μm-thick brain sections were cut using a cryostat-microtome, thaw-mounted on microscope slides and loaded in a β-imager to quantify PDE10 occupancy in the striatum.

[2] = test system: apomorphine-induced stereotypy; assay: Apomorphine-induced stereotypy in rats (APO); type: in vivo; conditions: Rattus norvegicus
Description: Apomorphine-Induced Stereotypy in Rats (APO)
Apomorphine (1.0 mg/kg, i.v.)-induced stereotypy (compulsive sniffing, licking, chewing) was scored every 5 min. over the first hour after injection of apomorphine, following a 1 hour interval pre-treatment with the test compound. The score system was: (3) pronounced, (2) moderate, (1) slight, and (O) absent.

[3] = test system: PCP-induced hyperlocomotion; assay: PCP-induced hyperlocomotion in rats (PCP); type: in vivo; conditions: Rattus norvegicus
[4] = po, * compound was not soluble and was tested orally as a suspension, read-out: APO ED50
[5] = not active at 2.5 or at 10 mg/kg, not further tested, read-out: APO ED50 (not active at threshold dose)

| SMILES | IC50 [1] | % Occ. at 10 mg/kg (PDE10; administered s.c.) | ED50 ([2]; read-out: APO ED50) | also measured |
| --- | --- | --- | --- | --- |
| COCCn1cc(-c2c(C)nc3c(-c4ccncc4)nccn23)cn1 [compound 34, 3-[1-(2-Methoxy-ethyl)-1H-pyrazol-4-yl]-2-methyl-8-pyridin-4-yl-imidazo[1,2-a]pyrazine] | 263 nM | 52% |  | ED50 [2, 4]: 1.2 mg/kg |
| Cc1nc2c(N3CCOCC3)nccn2c1-c1ccc(C2CC2)nc1 [compound 28, 3-(6-Cyclopropyl-pyridin-3-yl)-2-methyl-8-morpholin-4-yl-imidazo[1,2-a]pyrazine] |  |  |  | receptor occupancy at 10 mg/kg (PDE10; sc): 31%; ED50 (PDE10; sc, administered s.c.): > 10 mg/kg; ED50 [2, 4]: 1.2 mg/kg |
| COCCc1ccc(-c2c(C(F)(F)F)nc3c(N4CCOCC4)nccn23)cn1 [compound 12, 3-[6-(2-Methoxy-ethyl)-pyridin-3-yl]-8-morpholin-4-yl-2-trifluoromethyl-imidazo[1,2-a]pyrazine] |  |  | ≤ 2.5 mg/kg | receptor occupancy at 10 mg/kg (PDE10; sc): 22%; ED50 (PDE10; sc, administered s.c.): > 10 mg/kg |
| Cc1nc2c(N3CCOCC3)nccn2c1-c1ccnc(OC(C)C)c1 [compound 113] | 251 nM | 11% |  | ED50 [2, 5]: > 2.5 mg/kg |
| Cc1nc2c(N3CCOCC3)nccn2c1-c1cnc(CC(C)C)s1 [compound 42, 3-(2-Isobutyl-thiazol-5-yl)-2-methyl-8-morpholin-4-yl-imidazo[1,2-a]pyrazine] |  | 59% | 5 mg/kg |  |
| Cc1nc2c(N3CCOCC3)nccn2c1-c1cnn(CC2CCCCO2)c1 (single isomer, unassigned) [compound 70] | 91.2 nM |  | 5 mg/kg | ED50 [3]: 3.2 mg/kg |
| COC(C)(C)Cn1cc(-c2c(C3CC3)nc3c(-c4ccncc4)nccn23)cn1 [compound 50] | 47.9 nM | 72% | 5 mg/kg |  |
| COCCc1ccc(-c2c(C)nc3c(-c4ccncc4)nccn23)cn1 [compound 8, 3-[6-(2-Methoxy-ethyl)-pyridin-3-yl]-2-methyl-8-pyridin-4-yl-imidazo[1,2-a]pyrazine] |  |  | 1.2 mg/kg | ED50 (PDE10; sc, administered s.c.): 2.6 mg/kg |
| COCCn1cc(-c2c(C)nc3c(N4CCCC4)nccn23)cn1 [compound 130] |  | 10% |  | PDE10A2 pIC50 [1]: 6.3; ED50 [2, 5]: > 2.5 mg/kg |
| FC(F)(F)Cn1cc(-c2c(C3CC3)nc3c(N4CCOCC4)nccn23)cn1 [compound 46] | 25.1 nM | 41% |  | ED50 [2, 4]: 5 mg/kg |
| COCCn1cc(-c2c(C)nc3c(-c4cccnc4)nccn23)cn1 [compound 135] |  |  |  | PDE10A2 pIC50 [1]: 6.25; receptor occupancy at 10 mg/kg (PDE10; po): 29%; ED50 (PDE10; po, administered p.o. (a)): > 10 mg/kg |
| COC(C)(C)Cn1cc(-c2c(C3CC3)nc3c(N4CCOCC4)nccn23)cn1 [compound 48] | 33.1 nM | 53% | 3.1 mg/kg |  |
| COCCn1cc(-c2c(C3CC3)nc3c(-c4ccncc4)nccn23)cn1 [compound 51] | 50.1 nM | 61% | 1.2 mg/kg |  |
| Cc1nc2c(N3CCOCC3)nccn2c1-c1cnn(Cc2ccncc2)c1 [compound 77] |  |  | ≤ 10 mg/kg | PDE10A2 pIC50 [1]: 6.99 |
| CCn1cc(-c2c(C)nc3c(N4CCOCC4)nccn23)cn1 [compound 38, 3-(1-Ethyl-1H-pyrazol-4-yl)-2-methyl-8-morpholin-4-yl-imidazo[1,2-a]pyrazine] |  |  | ≤ 10 mg/kg | PDE10A2 pIC50 [1]: 6.63 |
| CCC(COC)n1cc(-c2c(C)nc3c(N4CCOCC4)nccn23)cn1 (single isomer, unassigned) [compound 74] | 95.5 nM |  |  | ED50 [2, 5]: > 2.5 mg/kg |
